Data: patent US20030224420A1, “Method for isolating and measuring proliferation of long-term label retaining cells and stem cells” (priority 2002, published 2003)
“Also recorded” adds a separate entry of the source.

Assays:
[1] = system: CEC; assay: CEC proliferation rates of BrdU treated vs control rats (preliminary study); type: in vivo; settings: data not shown
Description: There have been reports on the inhibitory effects of BrdU on cell proliferation and differentiation in vitro and in vivo at various concentrations and in various cell types. Since BrdU toxicity is strain and cell type specific, we cannot completely assess possible toxic effects from BrdU on the proliferation of LRCs.

[2] = system: colon epithelial cells (CECs); assay: Flow cytometric (FACS) analysis of BrdU labeled colon epithelial cell nuclei; type: in vivo, Fisher 344 rats; settings: for BrdU+ cells in proliferative fraction of the crypt: FACS
Procedure: For BrdU labeling, rats received BrdU in drinking water at 1 mg/ml. Glucose (1 g/100 ml) was added to the water to mask the taste of BrdU. BrdU was added to the water, then the bottle was shaken. Next, glucose was added and the bottle was vigorously shaken to dissolve BrdU completely. It took approximately 1-2 min for BrdU to dissolve completely. It was important to prepare BrdU drinking water freshly everyday during the feeding period.
Colon was excised fresh at necropsy. Feces were removed with 0.015M NaCl solution with 0.001M dithiothreitol (DTT) and the colon was placed in cold, 1.6% Joklik's modified medium (JMMEM, Gibco Invitrogen, Grand Island, N.Y.) for 120 minutes. CECs from different proliferative fractions of the crypt were separated sequentially using the nonenzymatic, mechanical dissociation method described elsewhere. CEC from different crypt fractions (basal proliferative fraction and top mature fraction) were collected by incubating the colon sac filled with PBS buffers containing chelating agents. The tissue was shaken in a 37° C. water bath for 20 minutes, then 15 minutes and 30 minutes for collecting CECs from top, middle and the basal fractions, respectively. The middle fraction (transitional fraction) was discarded. The collected CECs were then separated from intraepithelial lymphocytes and other contaminants by applying to a discontinuous Percoll (Amersham Biosciences, Uppsala, Sweden) gradient centrifugation, with 45% Percoll overlaid on 75% Percoll. CEC from the proliferative fraction (the base of the crypts) were collected and used for FACS and GC/MS analysis since LRCs are known to be located at this region. The CECs from the mature (top) fractions from the rats that were given ^2H2O for 2-3 weeks were used as fully turned over CECs to represent the maximal ^2H labeling in DNA. A part of the distal and proximal colon was used for immunohistochemistry.
The staining protocol was as described elsewhere, and was modified for CECs. The CECs were separated from colon (as described above) and filtered through a Falcon tube 2235. The cells were then fixed with ice cold 95% ethanol while vortexing, centrifugated at 800 g for 3 minutes and washed in cold PBS (without Ca^++ and Mg^++) once. […] Two million cells were washed of ethanol in 150 ul of PBS, incubated in 1% NP 40 (Sigma) solution in the refrigerator for 30 minutes, centrifugated at 10,000 g, and the pellet was collected and washed in PBS. Two million CEC nuclei were added to each well in 96 well plates (round bottom), then 150 ul of 1% paraformaldehyde with 0.01% Tween 20 in PBS was added for additional fixation and permeabilization. The cells were kept at room temperature for 30 minutes then at 4° C. for 15 minutes, prior to centrifugation at 800 g for 3 minutes and washing in cold PBS once. Next, 150 μl of DNase I (50 kunits/ml) was added at room temperature for 15 minutes to allow denaturation of nuclear DNA. […] For negative controls, an equal concentration of mouse IgG1 FITC isotype control antibodies (Becton Dickinson, Cat 349041) were used to correct for background fluorescence. […]
At the end of each BrdU labeling period (0 week delabed), we analyzed the percent of BrdU positive cells from the proliferative fraction of the crypt (where LRCs have previously been located). This maximal BrdU labeled sample was analyzed to confirm the efficacy of BrdU administration. […]

[3] = Body weight and toxicity during BrdU administration (p.o. drinking water vs i.p.); type: in vivo
[4] = Body water ^2H2O enrichment by GC/MS during ^2H2O administration; type: in vivo, Fisher 344 rats; settings: for Body Water ^2H2O Enrichment: 8% ^2H2O drinking water
Procedure: Rats were primed with 99.9% ^2H2O i.p. at the start of the ^2H2O labeling period. The volume injected was 4% of the estimated body water volume. Then they were maintained on 8% ^2H2O enriched drinking water ad libitum for up to 8 weeks (19).
Body water enrichments were measured by a gas chromatographic/mass spectrometer (GC/MS) technique that we have described previously.
Body water ^2H2O enrichments were measured from plasma obtained from rats sacrificed at each time point. Achievement of plateau ^2H enrichments in body water during long-term ^2H2O administration is desirable because it signifies a stable DNA synthesis precursor enrichment for labeling of DNA. Body water enrichment from rats that were on ^2H2O for 2-8 weeks reached expected values and remained at those plateau levels (3.9-4.3%) throughout the study (FIG. 3).

Compound	CEC proliferation rates vs control rats [1]	BrdU+ cells in proliferative fraction, mean±SD over labeling periods ([2]; 0 week delabeled, mean of 2, 4 and 8 weeks BrdU p.o.) [%]	BrdU positive cells after 4 and 8 weeks of BrdU administration ([2]; 4 and 8 weeks BrdU p.o.)	BrdU+ cells in proliferative fraction of the crypt ([2]; after 4 weeks BrdU p.o., 0 week delabeled) [%]	BrdU+ cells in proliferative fraction of the crypt ([2]; after 8 weeks BrdU p.o., 0 week delabeled) [%]	BrdU incorporation / fluorescence of CEC, i.p. vs p.o. ([2]; repeated i.p. injection once a day for 8 days compared with p.o. drinking water)	Toxicity or weight loss ([3]; BrdU 1 mg/ml in drinking water, long-term)	Toxicity (body weight) ([3]; BrdU i.p., repeated injections once a day for 8 days)	Body Water ^2H2O Enrichment ([4]; Week 1 of ^2H2O administration)	Body Water ^2H2O Enrichment ([4]; Week 3 of ^2H2O administration)	Body Water ^2H2O Enrichment ([4]; Week 4 of ^2H2O administration)	Delabeling time for ^2H2O to be almost completely washed out of the body water pool ([4]; after stopping ^2H2O intake, found previously in applicant's lab)	Body water enrichment, plateau levels ([4]; rats on ^2H2O for 2-8 weeks, measured from plasma)	Body water enrichment maintained throughout the study ([4]; throughout the study)
O=c1[nH]c(=O)n([C@H]2C[C@H](O)[C@@H](CO)O2)cc1Br [BrdU, bromodeoxyuridine]	same CEC proliferation rates as the control rats	77±12	65-77%	65	77	more BrdU incorporation and thus higher fluorescence	did not cause any detectable toxicity or weight loss	caused toxicities; also recorded: caused weight loss; also recorded: toxicities were observed						
[2H]O[2H] [^2H2O, deuterated water]									4.29	3.93	4.30	less than 1 week	3.9-4.3%	4.2±0.2 % of total body water
